Assay results: patent US20250042876A1, “HERBICIDAL PYRAZOLE PYRIMIDINE COMPOUNDS” (SYNGENTA CROP PROTECTION AG, priority 2021, published 2025)

How the values were obtained:
Format in all cases: in vivo
Conditions in all cases: 250 g/ha, evaluated after 13 days
[1] = test system: Ipomoea hederacea (IPOHE); assay: Pre-emergence herbicidal test, glasshouse
Protocol: (§1) Seeds of a variety of test species are sown in standard soil in pots Amaranthus palmeri (AMAPA), Amaranthus retoflexus (AMARE), Setaria faberi (SETFA), Echinochloa crus-galli (ECHCG), Ipomoea hederacea (IPOHE)). After cultivation for one day (pre-emergence) or after 8 days cultivation (post-emergence) under controlled conditions in a glasshouse (at 24/16° C., day/night; 14 hours light; 65% humidity), the plants are sprayed with an aqueous spray solution derived from the formulation of the technical active ingredient in acetone/water (50:50) solution containing 0.5% Tween 20 (polyoxyethelyene sorbitan monolaurate, CAS RN 9005-64-5). Compounds are applied at 250 g/ha unless otherwise stated. The test plants are then grown in a glasshouse under controlled conditions in a glasshouse (at 24/16° C., day/night; 14 hours light; 65% humidity) and watered twice daily. After 13 days for pre and post-emergence, the test is evaluated for the percentage damage caused to the plant. The biological activities are shown in the following table on a five-point scale (5=81-100%; 4=61-80%; 3=41-60%; 2=21-40%; 1=0-20%).

[2] = test system: Echinochloa crus-galli (ECHCG); assay: Pre-emergence herbicidal test, glasshouse
Protocol: as §1

[3] = test system: Amaranthus palmeri (AMAPA); assay: Pre-emergence herbicidal test, glasshouse
Protocol: as §1

Setaria faberi (SETFA) [4] = assay: Pre-emergence herbicidal test, glasshouse
Protocol: as §1

[5] = test system: Amaranthus retoflexus (AMARE); assay: Pre-emergence herbicidal test, glasshouse
Protocol: as §1

[6] = test system: Ipomoea hederacea (IPOHE); assay: Post-emergence herbicidal test, glasshouse
Protocol: as §1

[7] = test system: Echinochloa crus-galli (ECHCG); assay: Post-emergence herbicidal test, glasshouse
Protocol: as §1

[8] = test system: Amaranthus palmeri (AMAPA); assay: Post-emergence herbicidal test, glasshouse
Protocol: as §1

Setaria faberi (SETFA) [9] = assay: Post-emergence herbicidal test, glasshouse
Protocol: as §1

[10] = test system: Amaranthus retoflexus (AMARE); assay: Post-emergence herbicidal test, glasshouse
Protocol: as §1

SMILES | IPOHE percentage damage caused to the plant (five-point scale) [1] | ECHCG percentage damage caused to the plant (five-point scale) [2] | AMAPA percentage damage caused to the plant (five-point scale) [3] | SETFA percentage damage caused to the plant (five-point scale) (Setaria faberi (SETFA) [4]) | AMARE percentage damage caused to the plant (five-point scale) [5] | IPOHE percentage damage caused to the plant (five-point scale) [6] | ECHCG percentage damage caused to the plant (five-point scale) [7] | AMAPA percentage damage caused to the plant (five-point scale) [8] | SETFA percentage damage caused to the plant (five-point scale) (Setaria faberi (SETFA) [9]) | AMARE percentage damage caused to the plant (five-point scale) [10]
N#Cc1cnc(Cc2cc(C(F)(F)F)nn2-c2ccc(C(F)(F)F)cc2)nc1 [Compound 1.012] | 5 (5=81-100%) | 5 (5=81-100%) | 5 (5=81-100%) | 5 (5=81-100%) | 5 (5=81-100%) | 4 (4=61-80%) | 4 (4=61-80%) | 5 (5=81-100%) | 5 (5=81-100%) | 5 (5=81-100%)
FC(F)c1cc(Cc2ncc(Cl)cn2)n(-c2ccc(Cl)nc2)n1 [Compound 1.035] | 4 (4=61-80%) | 4 (4=61-80%) | 5 (5=81-100%) | 5 (5=81-100%) | 5 (5=81-100%) | 4 (4=61-80%) | 3 (3=41-60%) | 4 (4=61-80%) | 3 (3=41-60%) | 4 (4=61-80%)
